Source: patent KR20220022782A, “아모디아퀸 및 아르테수네이트계 약물을 유효성분으로 함유하는 제2형 당뇨병 예방 또는 치료용 약학적 조성물” (priority 2020, dated 2022)

Key:
in vitro = settings: mouse, c2c12 myoblast cells
[1] = test system: C2C12 myoblast cell line (C2C12 myoblast 세포주); test: in vitro
[2] = test system: Akt phosphorylation (Akt 인산화); test: Akt phosphorylation (western blotting) in palmitic acid-induced insulin-resistant C2C12 myotubes (Example 2); assay type: cell-based, mouse; settings: single agent; general statement
[3] = test system: C2C12 myotube cell line (C2C12 myotube 세포주); test: Glucose uptake (2-NBDG, Glucose uptake cell-based assay kit) in palmitic acid-induced insulin-resistant C2C12 myotubes (Example 3); set-up: species or system mouse; settings: single agent; general statement

Row | Structure (SMILES) | viability at 12.5 µM (in vitro) | cytotoxicity (in words) [1] | viability at 25 µM (in vitro) | improvement of insulin resistance (in words) [2] | promotion of glucose uptake (in words) [3]
1 | C[C@H]1[C@H](OC(=O)CCC(=O)O)O[C@@H]2O[C@@]3(C)CC[C@H]4[C@H](C)CC[C@@H]1[C@@]24OO3 [아르테수네이트, 아르테수네이트(artesunate)] | ~80% | 세포 독성이 없음 |  |  | 
2 | CCN(CC)Cc1cc(Nc2ccnc3cc(Cl)ccc23)ccc1O [아모디아퀸, 아모디아퀸(amodiaquine)] |  | 세포 독성이 없음 | ~80% | 미미한 수준에 불과하다 | 미미한 수준에 불과하다
